From patent US9993001B2, “Herbicidal composition” (ISHIHARA SANGYO KAISHA, LTD., priority 2014, dated 2018) come the findings set out here.

Common to all, as to type: in vivo
For test [1], the system named is common lambsquarters (Chenopodium album L.). In words: Test Example 24: pot, soil treatment, metobromuron + trifluralin. The settings on record: soil, read-out: Growth inhibition rate of common lambsquarters (%) Measured value. The source says:
(§1) When the herbicidal activity in a case where two active ingredients are combined, is larger than the simple sum of the respective herbicidal activities of the two active ingredients (the expected activity), it is called a synergistic effect. The activity expected by the combination of two active ingredients can be calculated as follows (Colby S. R., “Weed”, vol. 15, p. 20-22, 1967). E=α+β−(α×β[…]) where α: growth inhibition rate when treated with x (g/ha) of herbicide X, • β: growth inhibition rate when treated with y (g/ha) of herbicide Y, • E: growth inhibition rate expected when treated with x (g/ha) of herbicide X and y (g/ha) of herbicide Y.
(§2) On the 19th day after treatment, the state of growth of barnyardgrass was visually observed and evaluated in accordance with the following standards. The growth inhibition rate (%) [measured value] and the growth inhibition rate (%) [calculated value] calculated by the Colby's method, are shown in Table 2.
(§3) Growth inhibition rate (%)=inhibition rate) (%) of 0 (equivalent to the non-treated area) to 100 (complete kill)
Soil was put into a 1/300,000 ha pot, and seeds of common lambsquarters (Chenopodium album L.) were sown. On the day after seeding, predetermined amounts of SC containing metobromuron as active ingredient (same as in Test Example 1) and EC containing trifluralin as active ingredient (same as in Test Example 4) were diluted with water corresponding to 1,000 L per hectare and applied for soil treatment.
On the 21st day after treatment, the state of growth of common lambsquarters was visually observed and evaluated in the same manner as in Test Example 1.

Test [2] deals with barnyardgrass (Echinochloa crus-galli L.). In words: Test Example 15: pot, soil treatment, metobromuron + chlorpropham. The settings on record: soil, read-out: Growth inhibition rate of barnyardgrass (%) Measured value.
Excerpt: as §1, §2, §3
Soil was put into a 1/300,000 ha pot, and seeds of barnyardgrass (Echinochloa crus-galli L.) were sown. […]
(§4) On the 21st day after treatment, the state of growth of barnyardgrass was visually observed and evaluated in the same manner as in Test Example 1.

The test system of test [3] is black nightshade (Solanum nigrum L.). In words: Test Example 26: pot, soil treatment, metobromuron + prosulfocarb. The settings on record: soil, read-out: Growth inhibition rate of black nightshade (%) Measured value.
Excerpt: as §1, §2, §3
(§5) Soil was put into a 1/300,000 ha pot, and seeds of black nightshade (Solanum nigrum L.) were sown. On the day after seeding, predetermined amounts of SC containing metobromuron as active ingredient (same as in Test Example 1) and EC containing prosulfocarb as active ingredient (trade name: BOXER NYUZAI, manufactured by Syngenta) were diluted with water corresponding to 1,000 L per hectare and applied for soil treatment.
(§6) On the 21st day after treatment, the state of growth of black nightshade was visually observed and evaluated in the same manner as in Test Example 1.

For test [4] the test system is unchanged. The test is described as follows: Test Example 27: pot, soil treatment, metobromuron + flufenacet. The following applies: soil, read-out: Growth inhibition rate of black nightshade (%) Measured value.
Excerpt: as §1, §2, §3, §5, §6
The test was carried out in the same manner as in Test Example 26 except that EC containing prosulfocarb as active ingredient was changed to SC containing flufenacet as active ingredient (trade name: Cadou, manufactured by Bayer CropScience), to obtain the results as shown in Table 28.

For test [5], the system named is large crabgrass (Digitaria sanquinalis L.). The test is described as follows: Test Example 28: pot, soil treatment, metobromuron + pendimethalin. The following applies: soil, read-out: Growth inhibition rate of large crabgrass (%) Measured value.
Excerpt: as §1, §2, §3
Soil was put into a 1/300,000 ha pot, and seeds of large crabgrass (Digitaria sanquinalis L.) were sown. On the day after seeding, predetermined amounts of SC containing metobromuron as active ingredient (same as in Test Example 1) and EC containing pendimethalin as active ingredient (same as in Test Example 10) were diluted with water corresponding to 1,000 L per hectare and applied for soil treatment.
On the 27th day after treatment, the state of growth of large crabgrass was visually observed and evaluated in the same manner as in Test Example 1.

In test [6] the test system is velvetleaf (Abutilon theophrasti MEDIC.). The test is described as follows: Test Example 13: pot, soil treatment, metobromuron + pyroxasulfone. The settings on record: soil, read-out: Growth inhibition rate of velvetleaf (%) Measured value.
Excerpt: as §1, §2, §3
Soil was put into a 1/300,000 ha pot, and seeds of velvetleaf (Abutilon theophrasti MEDIC.) were sown. Prior to germination of velvetleaf, predetermined amounts of SC containing metobromuron as active ingredient (same as in Test Example 1) and WG containing pyroxasulfone as active ingredient (trade name: Sakura 850 WG, manufactured by Bayer CropScience) were diluted with water corresponding to 1,000 L per hectare and applied for soil treatment.
On the 12th day after treatment, the state of growth of velvetleaf was visually observed and evaluated in the same manner as in Test Example 1.

Test [7] deals with common lambsquarters (Chenopodium album L.). In words: Test Example 8: corn field, soil treatment, metobromuron + S-metolachlor. The following applies: soil, read-out: Growth inhibition rate of common lambsquarters (%) Measured value.
Excerpt: as §1, §2
Growth inhibition rate (%)=inhibition rate) (%) of 0 (equivalent to the non-treated area) to 100 (complete kill) […]
On the 28th day after treatment, the state of growth of common lambsquarters (Chenopodium album L.) which occurred naturally, was visually observed and evaluated in the same manner as in Test Example 1.

Test [8] shares this test system. The test is described as follows: Test Example 20: pot, soil treatment, metobromuron + chlorpropham. The settings on record: soil, read-out: Growth inhibition rate of common lambsquarters (%) Measured value.
Excerpt: as §1, §2, §3
(§7) Soil was put into a 1/300,000 ha pot, and seeds of barnyardgrass (Echinochloa crus-galli L.) were sown. On the day after seeding, predetermined amounts of SC containing metobromuron as active ingredient (same as in Test Example 1) and EC containing chlorpropham as active ingredient (same as in Test Example 1) were diluted with water corresponding to 1,000 L per hectare and applied for soil treatment.
On the 26th day after treatment, the state of growth of barnyardgrass was visually observed and evaluated in the same manner as in Test Example 1.
The test was carried out in the same manner as in Test Example 18 except that barnyardgrass (Echinochloa crus-galli L.) was changed to common lambsquarters (Chenopodium album L.), to obtain the results as shown in Table 21.

Test [9] deals with giant foxtail (Setaria faberi Herrm.). In words: Test Example 16: pot, soil treatment, metobromuron + chlorpropham. The following applies: soil, read-out: Growth inhibition rate of giant foxtail (%) Measured value.
Excerpt: as §1, §2, §3, §7, §4
The test was carried out in the same manner as in Test Example 15 except that barnyardgrass (Echinochloa crus-galli L.) was changed to giant foxtail (Setaria faberi Herrm.), to obtain the results as shown in Table 17.

Test [10] deals with black nightshade (Solanum nigrum L.). In words: Test Example 17: pot, soil treatment, metobromuron + chlorpropham. The following applies: soil, read-out: Growth inhibition rate of black nightshade (%) Measured value.
Excerpt: as §1, §2, §3, §7, §4
The test was carried out in the same manner as in Test Example 15 except that barnyardgrass (Echinochloa crus-galli L.) was changed to black nightshade (Solanum nigrum L.), to obtain the results as shown in Table 18.

Usually inhibition stands for the share of the control response that was lost under treatment.

Turning to `CON(C)C(=O)Nc1ccc(Br)cc1` [Metobromuron, 3-(4-bromophenyl)-1-methoxy-1-methylurea], the inhibition at 375 g/ha in test [1] amounted to 50%; in test [3], 50%; in test [4], 50%; in test [6] it was 28%. The inhibition at 1500 g/ha stood at 72% in [2] and 74% in test [6]. Further, the figures for the inhibition at 250 g/ha in test [3], in test [4] and in [5] were 25%, 25% and 35%, respectively. Besides, the inhibition at 562.5 g/ha in test [3] and in [4] was 68% in each case. Moreover, the inhibition at 62.5 g/ha in [5] turned out to be 0%. Also, the inhibition at 125 g/ha in test [5] came to 15%. For the same compound, the inhibition at 750 g/ha in test [6] was found to be 55%. Moreover, the inhibition at 1000 g/ha in test [7], in [9] and in test [10] was 78% each time. Further, the inhibition at 188 g/ha in test [8] was found to be 50%.
